Test results as given in US8277824B2, “Solubilization of cyclohexane-based carboxamide derivatives for use as sensates in consumer products” (The Procter & Gamble Company, priority 2008, dated 2012).
Read-outs that look alike come from different tables or passages of the source.

Columns and labels:
[1] = Experimental solubility limit of G-180 in liquid solvents (visual clarity); assay type: physicochemical; settings: 25° C.
Protocol: The solubility of G-180 in various solvents was determined as follows. Aliquot one to twenty grams of a target solvent into a vial or flask. Weigh out G-180 to provide a concentration of 25%. […] Visually inspect for clarity. If the solution is not completely clear, add solvent, calculate new concentration of G-180 and repeat the solubilization energy and check for clarity. Once a level of clarity is achieved, repeat the process but increase the G-180 concentration by 10% until clarity is diminished. Once these cross points of clarity are achieved, this is reported as the experimental solubility limit of G-180 in the respective solvent.

[2] = demonstrated in commonly assigned U.S. Application No. 61/003,863; cited from earlier work
Cooling effect (sensory) = assay type: in vivo; settings: neoisomer prepared in Procter & Gamble laboratories
Excerpt: Many of the compounds above including menthol have relatively low potency and the duration of the cooling effect is typically short-lived. Thus, it is necessary to include fairly high levels of such compounds when formulating products, which increases cost. In addition, many of these compounds are relatively high cost ingredients since they are expensive to manufacture on an industrial scale. Therefore, compounds with high potency and long lasting cooling effect are highly sought that will require only small amounts for incorporation in a variety of consumer products to provide high impact and long-lasting effect. Such potent and long lasting coolant compounds have recently been described for example in WO 2005/049553A1 to Givaudan including ρ-menthane carboxamides substituted at the amide N-position with an aryl moiety bearing certain substituents. Examples include N-(4-cyanomethylphenyl)-ρ-menthanecarboxamide; N-(4-sulfamoylphenyl)-ρ-menthanecarboxamide; N-(4-cyanophenyl)-ρ-menthanecarboxamide; N-(4-acetylphenyl)-ρ-menthanecarboxamide, N-(4-hydroxymethylphenyl)-ρ-menthanecarboxamide and N-(3-hydroxy-4-methoxyphenyl)-ρ-menthanecarboxamide. […]

[3] = concentration level where the cooling effect could be clearly recognized; Emberger and Hopp 1987; cited from earlier work

Q: For `CC(C)[C@@H]1CC[C@@H](C)C[C@H]1C(=O)Nc1ccc(CC#N)cc1` [G180, N-[4-(cyanomethyl)phenyl]-(1R,2S,5R)-2-isopropyl-5-methylcyclohexanecarboxamide], which “G180 Experimental % Solubility” value ([1]; solvent 2,3-dimethyl Pyrazine) is on record?
A: Its value is 20.4%.

Q: What about the “G180 Experimental % Solubility” value ([1]; solvent 2,5-dimethyl Pyrazine) of the same compound?
A: The value was 20.0%.

Q: What about the “G180 Experimental % Solubility” value ([1]; solvent Benzaldehyde) of the same compound?
A: Its value is 16.7%.

Q: What about the “G180 Experimental % Solubility” value ([1]; solvent Benzyl Salicylate) of the same compound?
A: The value was 14.7%.

Q: What about the “G180 Experimental % Solubility” value ([1]; solvent Benzyl alcohol) of the same compound?
A: Its value is 21.2%.

Q: And the “G180 Experimental % Solubility” value ([1]; solvent Cuminylaldehyde)?
A: Its value is 20.0%.

Q: And the “G180 Experimental % Solubility” value ([1]; solvent Isoamyl propionate)?
A: The value was 13.2%.

Q: What about the “G180 Experimental % Solubility” value ([1]; solvent Menthone) of the same compound?
A: The value was 15.4%.

Q: And the “G180 Experimental % Solubility” value ([1]; solvent Neryl acetate)?
A: The value was 7.4%.

Q: And the “G180 Experimental % Solubility” value ([1]; solvent Para-Tolualdehyde)?
A: The value was 15.9%.

Q: And the “G180 Experimental % Solubility” value ([1]; solvent Triacetin)?
A: The value was 4.4%.

Q: What about the “G180 Experimental % Solubility” value ([1]; solvent Water) of the same compound?
A: The value was <0.1%.

Q: What about the “G180 Experimental % Solubility” value ([1]; solvent α-Amyl Cinnamic Aldehyde) of the same compound?
A: The value was 12.1%.

Q: What about the cooling effect [2] of the same compound?
A: The cooling effect was “intense and long-lasting cooling effect”.

Q: For `CC(C)[C@@H]1CC[C@@H](C)C[C@@H]1C(=O)Nc1ccc(CC#N)cc1` [neoisomer, N-[4-(cyanomethyl)phenyl]-(1S,2S,5R)-2-isopropyl-5-methylcyclohexanecarboxamide], which cooling effect (Cooling effect (sensory)) is on record?
A: Its cooling effect is “potent and long-lasting cooling effect”.

Q: With `CC(C)[C@H]1CC[C@H](C)C[C@H]1O` [l-neomenthol] as the compound, how does the cooling threshold [3] read?
A: Its cooling threshold is “about 3,000 ppb”.

Q: Which cooling threshold [3] does the source give for `CC(C)[C@@H]1CC[C@@H](C)C[C@H]1O` [L-menthol] here?
A: Its cooling threshold is “about 800 ppb”.

Q: For `CC(C)[C@@H]1CC[C@@H](C)C[C@@H]1O` [d-neomenthol], which cooling threshold [3] is on record?
A: Its cooling threshold is “about 25,000 ppb”.
